pIC50: −log10 of the molar value.
Key:
H1975 = H1975 CellTiter-Glo; format: cell-based; conditions: Homo sapiens, NCI-H1975; 72 h compound incubation; read-out: H1975 CTG IC50
Protocol: (§1) 2. Measurement of Cellular Activity
(§2) The CellTiter-Glo Luminescent Cell Viability Assay (Promega) is a homogeneous method of determining the number of viable cells in culture. It is based on quantification of ATP, indicating the presence of metabolically active cells. Cells are seeded on day 1 at cell numbers that assure assay linearity and optimal signal intensity. After incubation for 24 h in humidified chambers at 37° C. and 5% CO2, compounds in DMSO are added at different concentrations. Cells are further incubated for 72 h at 37° C. and 5% CO2. Cells treated with the compound vehicle DMSO are used as positive controls and cells treated with 10 μM Staurosporine serve as negative controls. At day 5 the CellTiter Glo Reagent is prepared according to the instructions of the kit (Promega Inc.): Reagent is mixed 1:1 with cell culture medium. Thereon, mixture and assay plates are equilibrated at room temperature for 20 min. Equal volumes of the reagent-medium-mixture is added to the volume of culture medium present in each well. The plates are mixed at ˜200 rpm for 2 minutes on an orbital shaker. The microplates are then incubated at room temperature for 10 minutes for stabilization of the luminescent signal. Following incubation the luminescence is recorded on a Victor microplate reader (Perkin Elmer) using a 200 ms integration time. The data is then analyzed with Excel using the XLFIT Plugin (dose response Fit 205) for IC50-determination. As quality control the Z′-factor is calculated from 16 positive and negative control values. Only assay results showing a Z′-factor ≥0.5 are used for further analysis.
(§3) Inhibition is indicated as […] [nM] (“−”=not measured). Compounds having an activity designated as “A” provided an IC50≤100 nM; compounds having an activity designated as “B” provided an 100 nM<IC50≤500 nM; compounds having an activity designated as “C” provided an 500 nM<IC50≤1000 nM; compounds having an activity designated as “D” provided an 1000 nM<IC50≤100000 nM; and compounds having an activity designated as “E” provided an IC50>10000 nM.

A431 = A431 CellTiter-Glo; format: cell-based; conditions: Homo sapiens, A-431; 72 h compound incubation; read-out: A431 CTG IC50
Protocol: as §1, §2, §3

[1] = molecular target: Her2 Exon 20 INSYVMA Ba/F3 (Homo sapiens, UniProt P04626, DUP772-775, cells depend on it); assay: Her2 Exon 20 INSYVMA Ba/F3 CellTiter-Glo; format: cell-based; conditions: CellTiter-Glo, 72 h, read-out: Her2 Exon 20 INSYVMA Ba/F3 CTG IC50
Protocol: as §1, §2
(§4) Inhibition is indicated as IC50 [nM] (“−”=not measured). Compounds having an activity designated as “A” provided an IC50≤100 nM; compounds having an activity designated as “B” provided an 100 nM<IC50≤500 nM; compounds having an activity designated as “C” provided an 500 nM<IC50≤1000 nM; compounds having an activity designated as “D” provided an 1000 nM<IC50≤10000 nM; and compounds having an activity designated as “E” provided an IC50>10000 nM.

HER2 INS YVMA = molecular target: T1, HER2 INS YVMA (Homo sapiens, UniProt P04626, INS775YVMA); assay: Lance Kinase Activity Assay, HER2 INS YVMA (Her2 Exon 20 INSYVMA Lance); format: biochemical; conditions: biochemical Lance assay
T1 construct: purchased DPF
Protocol: 1. Measurement of HER2 INS YVMA Kinase Activity
This protocol describes how the Lance Kinase Activity Assay was performed to determine IC50 values of compounds of general formula (I) against HER2 INS YVMA. The principle behind this enzymatic assay is based upon the phosphorylation of the Ulight-peptide substrate. It is detected by using a specific EU-labeled anti-phospho peptide antibody. The binding of the Eu labeled anti-phospho peptide antibody to the phosphorylated ULight labeled peptide gives rise to a FRET-signal.
Binding of an inhibitor to the kinase prevents phosphorylation of the Ulight-substrate, resulting in a loss of FRET. In table 2 is summarized the relevant information for the LANCE assay.
The compounds of general formula (I) summarized in Table 3 were serial diluted from a 10 mM DMSO stock solution 1:3 over 8 steps in a total volume of 20 μl.
For every sample, 8 μl of kinase-substrate mix was transferred into a suitable assay plate (e.g. Corning #3673). Compound was added via pintool transfer (10 nl/well) using a Biomek FX robot (BeckmanCoulter). Reaction was started by addition of 2 μl ATP working solution and mixed using variomag teleshaker (Thermo Fischer Scientific). After 1 h incubation at room temperature the reaction was stopped with 10 μl detection mix containing the Eu-labeled phosphospecific antibody and 10 mM EDTA. After a second incubation period of 1 h at room temperature the FRET signal was measured at 340 nm excitation, 665 nm and 615 nm emission (for the ULight-substrate and Eu-AB, respectively) with an Envision spectrophotometer (Perkin Elmer, Waltham, Mass., USA) with 50 μs delay and 300 μs integration time. IC50 values were determined from the sigmoidal dose response curves with the software Quattro Workflow (Quattro GmbH, Munich, Germany).

EGFR wt = EGFR wt (Homo sapiens, UniProt P00533); assay: EGFR wt Lance assay; format: biochemical
Protocol: as §3

EGFR T790ML858R = EGFR T790ML858R (Homo sapiens, UniProt P00533, L858R/T790M); assay: EGFR T790ML858R Lance assay; format: biochemical
Protocol: as §3

[2] = molecular target: EGFR Exon 20 INSNPH Ba/F3 (Homo sapiens, UniProt P00533, DUP771-773, cells depend on it); assay: EGFR Exon 20 INSNPH Ba/F3 CellTiter-Glo; format: cell-based; conditions: CellTiter-Glo, 72 h, read-out: EGFR Exon 20 INSNPH Ba/F3 CTG IC50
Protocol: as §1, §2, §4

Sequence of EGFR Exon 20 INSNPH Ba/F3 (P00533 with tags, fused parts or gaps DUP771-773): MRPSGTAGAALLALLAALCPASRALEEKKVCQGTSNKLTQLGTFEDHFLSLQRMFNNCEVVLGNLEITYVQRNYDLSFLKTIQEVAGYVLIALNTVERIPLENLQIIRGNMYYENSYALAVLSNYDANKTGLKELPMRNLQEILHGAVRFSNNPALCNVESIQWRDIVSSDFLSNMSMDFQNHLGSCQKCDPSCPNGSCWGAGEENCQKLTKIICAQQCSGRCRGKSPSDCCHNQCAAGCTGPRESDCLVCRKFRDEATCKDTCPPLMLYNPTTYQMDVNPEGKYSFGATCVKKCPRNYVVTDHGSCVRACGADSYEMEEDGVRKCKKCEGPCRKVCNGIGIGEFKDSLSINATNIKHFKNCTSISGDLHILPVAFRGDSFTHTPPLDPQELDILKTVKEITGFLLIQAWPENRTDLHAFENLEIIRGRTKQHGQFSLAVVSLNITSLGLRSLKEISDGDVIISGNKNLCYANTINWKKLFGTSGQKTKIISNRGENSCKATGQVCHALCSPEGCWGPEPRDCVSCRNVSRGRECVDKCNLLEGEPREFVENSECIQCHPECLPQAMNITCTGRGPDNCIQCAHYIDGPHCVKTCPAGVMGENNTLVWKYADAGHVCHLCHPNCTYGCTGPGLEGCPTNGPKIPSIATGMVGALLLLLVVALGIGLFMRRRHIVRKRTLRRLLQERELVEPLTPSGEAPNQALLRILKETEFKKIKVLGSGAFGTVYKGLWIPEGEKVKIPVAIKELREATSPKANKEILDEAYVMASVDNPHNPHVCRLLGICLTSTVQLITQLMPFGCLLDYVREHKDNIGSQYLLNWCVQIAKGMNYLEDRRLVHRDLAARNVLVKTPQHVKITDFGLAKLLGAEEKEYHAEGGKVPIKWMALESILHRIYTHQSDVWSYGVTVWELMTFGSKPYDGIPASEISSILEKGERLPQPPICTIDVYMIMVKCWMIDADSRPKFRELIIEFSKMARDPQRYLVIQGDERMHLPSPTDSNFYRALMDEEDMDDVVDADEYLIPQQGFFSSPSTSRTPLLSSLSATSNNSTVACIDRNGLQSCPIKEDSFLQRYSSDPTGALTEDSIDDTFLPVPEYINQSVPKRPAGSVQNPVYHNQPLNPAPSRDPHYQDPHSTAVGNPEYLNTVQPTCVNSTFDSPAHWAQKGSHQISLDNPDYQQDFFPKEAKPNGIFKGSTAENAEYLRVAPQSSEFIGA
Sequence of Her2 Exon 20 INSYVMA Ba/F3 (P04626 with tags, fused parts or gaps DUP772-775): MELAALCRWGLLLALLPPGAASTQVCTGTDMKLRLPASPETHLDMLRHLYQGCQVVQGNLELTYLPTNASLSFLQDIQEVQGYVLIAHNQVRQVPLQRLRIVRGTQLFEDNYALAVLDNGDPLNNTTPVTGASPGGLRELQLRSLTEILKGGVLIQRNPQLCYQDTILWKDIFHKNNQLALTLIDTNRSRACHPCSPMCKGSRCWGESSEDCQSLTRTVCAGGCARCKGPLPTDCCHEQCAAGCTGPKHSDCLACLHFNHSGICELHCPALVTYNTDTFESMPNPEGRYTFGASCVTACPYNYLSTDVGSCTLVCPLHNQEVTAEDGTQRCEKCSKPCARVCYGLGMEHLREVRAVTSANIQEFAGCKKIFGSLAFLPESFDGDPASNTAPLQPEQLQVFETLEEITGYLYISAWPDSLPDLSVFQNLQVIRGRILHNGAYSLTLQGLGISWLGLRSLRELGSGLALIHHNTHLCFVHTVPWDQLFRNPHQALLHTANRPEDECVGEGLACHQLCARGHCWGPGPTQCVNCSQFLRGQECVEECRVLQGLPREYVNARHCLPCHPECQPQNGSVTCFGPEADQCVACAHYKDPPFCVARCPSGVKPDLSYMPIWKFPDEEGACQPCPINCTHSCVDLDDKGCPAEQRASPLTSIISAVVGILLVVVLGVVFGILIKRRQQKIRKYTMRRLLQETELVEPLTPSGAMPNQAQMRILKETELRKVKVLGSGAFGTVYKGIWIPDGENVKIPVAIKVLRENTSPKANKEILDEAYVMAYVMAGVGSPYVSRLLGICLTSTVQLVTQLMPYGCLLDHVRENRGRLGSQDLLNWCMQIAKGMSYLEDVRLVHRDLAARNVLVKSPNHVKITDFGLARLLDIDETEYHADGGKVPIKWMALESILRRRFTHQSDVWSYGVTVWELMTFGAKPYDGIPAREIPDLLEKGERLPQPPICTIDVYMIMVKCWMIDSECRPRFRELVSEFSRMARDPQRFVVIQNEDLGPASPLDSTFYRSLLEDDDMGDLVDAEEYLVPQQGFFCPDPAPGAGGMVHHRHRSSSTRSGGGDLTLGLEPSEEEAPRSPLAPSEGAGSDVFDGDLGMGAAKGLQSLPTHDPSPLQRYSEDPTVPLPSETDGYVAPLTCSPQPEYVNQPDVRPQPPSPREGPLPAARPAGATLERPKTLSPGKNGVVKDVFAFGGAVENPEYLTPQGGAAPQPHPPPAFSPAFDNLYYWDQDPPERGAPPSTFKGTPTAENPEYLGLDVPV
Sequence of EGFR wt (P00533 25-1210): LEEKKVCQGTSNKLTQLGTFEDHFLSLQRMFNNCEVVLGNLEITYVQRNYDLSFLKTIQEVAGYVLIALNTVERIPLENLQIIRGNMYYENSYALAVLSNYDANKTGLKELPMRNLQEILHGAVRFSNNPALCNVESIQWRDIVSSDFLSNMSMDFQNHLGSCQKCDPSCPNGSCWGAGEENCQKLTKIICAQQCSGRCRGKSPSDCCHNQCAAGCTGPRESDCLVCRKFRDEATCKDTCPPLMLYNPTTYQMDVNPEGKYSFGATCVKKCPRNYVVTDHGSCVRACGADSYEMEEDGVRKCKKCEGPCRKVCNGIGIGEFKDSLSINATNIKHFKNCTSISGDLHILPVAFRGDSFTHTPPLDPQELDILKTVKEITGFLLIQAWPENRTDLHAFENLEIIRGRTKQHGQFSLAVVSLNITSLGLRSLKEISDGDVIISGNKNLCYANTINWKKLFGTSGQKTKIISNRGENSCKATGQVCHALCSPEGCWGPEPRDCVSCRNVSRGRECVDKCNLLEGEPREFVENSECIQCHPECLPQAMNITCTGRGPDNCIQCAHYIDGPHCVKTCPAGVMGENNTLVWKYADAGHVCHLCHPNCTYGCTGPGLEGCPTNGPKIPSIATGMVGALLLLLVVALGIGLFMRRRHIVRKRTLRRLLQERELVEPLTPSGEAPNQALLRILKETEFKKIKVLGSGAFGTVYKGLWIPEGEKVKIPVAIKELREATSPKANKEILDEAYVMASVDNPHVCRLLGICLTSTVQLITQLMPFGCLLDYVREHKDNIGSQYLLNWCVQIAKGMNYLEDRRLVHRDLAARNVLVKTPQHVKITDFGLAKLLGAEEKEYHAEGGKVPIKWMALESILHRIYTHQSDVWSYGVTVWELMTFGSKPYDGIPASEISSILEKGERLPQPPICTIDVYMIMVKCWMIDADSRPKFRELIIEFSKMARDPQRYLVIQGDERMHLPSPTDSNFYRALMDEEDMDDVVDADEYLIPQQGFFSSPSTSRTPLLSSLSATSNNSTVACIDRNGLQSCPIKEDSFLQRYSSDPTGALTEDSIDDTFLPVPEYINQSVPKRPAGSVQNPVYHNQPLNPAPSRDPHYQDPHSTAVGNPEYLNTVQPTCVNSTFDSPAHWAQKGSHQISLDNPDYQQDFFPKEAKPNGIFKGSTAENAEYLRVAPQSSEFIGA
T1 sequence (P04626 with tags, fused parts or gaps INS775YVMA): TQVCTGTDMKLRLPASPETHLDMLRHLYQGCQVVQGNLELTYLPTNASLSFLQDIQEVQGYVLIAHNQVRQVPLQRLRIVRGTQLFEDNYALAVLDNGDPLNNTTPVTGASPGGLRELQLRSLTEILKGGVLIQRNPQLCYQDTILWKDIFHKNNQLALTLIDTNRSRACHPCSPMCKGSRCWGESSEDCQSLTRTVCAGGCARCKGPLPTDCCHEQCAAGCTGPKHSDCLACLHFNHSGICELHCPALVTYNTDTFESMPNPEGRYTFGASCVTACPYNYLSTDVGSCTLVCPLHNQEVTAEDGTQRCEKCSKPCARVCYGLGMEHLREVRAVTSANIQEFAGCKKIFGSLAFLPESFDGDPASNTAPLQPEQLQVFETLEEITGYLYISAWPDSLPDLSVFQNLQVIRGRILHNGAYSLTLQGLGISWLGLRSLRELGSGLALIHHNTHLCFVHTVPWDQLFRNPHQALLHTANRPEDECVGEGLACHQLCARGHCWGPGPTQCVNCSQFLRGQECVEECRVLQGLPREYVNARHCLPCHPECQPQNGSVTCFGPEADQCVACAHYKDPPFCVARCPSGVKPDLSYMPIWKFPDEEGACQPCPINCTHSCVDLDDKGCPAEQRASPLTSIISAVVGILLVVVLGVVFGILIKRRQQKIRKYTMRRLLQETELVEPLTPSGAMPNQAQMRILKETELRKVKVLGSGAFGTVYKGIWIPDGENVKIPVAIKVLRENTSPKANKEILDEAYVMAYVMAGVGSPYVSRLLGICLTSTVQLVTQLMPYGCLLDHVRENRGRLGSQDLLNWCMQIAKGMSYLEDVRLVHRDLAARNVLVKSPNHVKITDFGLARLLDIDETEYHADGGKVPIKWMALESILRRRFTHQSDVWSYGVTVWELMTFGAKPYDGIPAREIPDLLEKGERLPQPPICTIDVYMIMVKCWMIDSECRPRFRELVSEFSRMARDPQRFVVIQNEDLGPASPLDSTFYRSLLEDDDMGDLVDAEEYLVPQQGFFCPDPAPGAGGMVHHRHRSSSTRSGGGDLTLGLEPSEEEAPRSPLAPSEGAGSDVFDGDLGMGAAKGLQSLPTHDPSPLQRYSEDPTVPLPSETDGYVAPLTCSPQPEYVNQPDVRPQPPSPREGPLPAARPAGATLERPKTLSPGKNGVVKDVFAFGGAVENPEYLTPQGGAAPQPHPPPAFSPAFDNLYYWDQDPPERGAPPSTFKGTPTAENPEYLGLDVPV

SMILES | pIC50 (H1975) | pIC50 (A431) | GI50 [1] | pIC50 (HER2 INS YVMA) | pIC50 (EGFR wt) | pIC50 (EGFR T790ML858R) | GI50 [2]
C=CC(=O)Nc1cc(-c2c(-c3ccc(N4CCN(C)CC4)cc3)[nH]c3ncc(C(=O)NCCc4ccncc4)cc23)ccc1C [Example 123, 3-(3-acrylamido-4-methylphenyl)-2-(4-(4-methylpiperazin-1-yl)phenyl)-N-(2-(pyridin-4-yl)ethyl)-1H-pyrrolo[2,3-b]pyridine-5-carboxamide] | < 5.00 | 4.00 to 6.00 | 1000 to 10000 nM | 6.00 to 6.30 | ≥ 7.00 | ≥ 7.00 | 1000 to 10000 nM
C=CC(=O)Nc1cc(-c2c(-c3ccc(N4CCN(C)CC4)cc3)[nH]c3ncc(C(=O)NCc4cccc(S(N)(=O)=O)c4)cc23)ccc1C [Example 126, 3-(3-acrylamido-4-methylphenyl)-2-(4-(4-methylpiperazin-1-yl)phenyl)-N-(3-sulfamoylbenzyl)-1H-pyrrolo[2,3-b]pyridine-5-carboxamide] | < 5.00 | < 5.00 | > 10000 nM | 6.30 to 7.00 | ≥ 7.00 | ≥ 7.00 | > 10000 nM
C=CC(=O)Nc1cc(-c2c(-c3ccc(N4CCN(C)CC4)cc3)[nH]c3ncc(C(=O)NCC4CCN(C)CC4)cc23)ccc1C [Example 129, 3-(3-acrylamido-4-methylphenyl)-2-(4-(4-methylpiperazin-1-yl)phenyl)-N-((1-methylpiperidin-4-yl)methyl)-1H-pyrrolo[2,3-b]pyridine-5-carboxamide] | < 5.00 | < 5.00 | > 10000 nM | 6.00 to 6.30 | 6.30 to 7.00 | 6.30 to 7.00 | > 10000 nM
C=CC(=O)Nc1cc(-c2c(-c3ccc(N4CCN(C)CC4)cc3)[nH]c3ncc(C(=O)NCc4nncn4C)cc23)ccc1C [Example 130, 3-(3-acrylamido-4-methylphenyl)-N-((4-methyl-4H-1,2,4-triazol-3-yl)methyl)-2-(4-(4-methylpiperazin-1-yl)phenyl)-1H-pyrrolo[2,3-b]pyridine-5-carboxamide] | < 5.00 | < 5.00 | > 10000 nM | 6.30 to 7.00 | ≥ 7.00 | 6.30 to 7.00 | > 10000 nM
C=CC(=O)Nc1cc(-c2c(-c3ccc(N4CCN(C)CC4)cc3)[nH]c3ncc(C(=O)NCc4ccc(NC(C)=O)cc4)cc23)ccc1C [Example 132, N-(4-acetamidobenzyl)-3-(3-acrylamido-4-methylphenyl)-2-(4-(4-methylpiperazin-1-yl)phenyl)-1H-pyrrolo[2,3-b]pyridine-5-carboxamide] | < 5.00 | < 5.00 | > 10000 nM | 6.00 to 6.30 | ≥ 7.00 | 6.30 to 7.00 | > 10000 nM
C=CC(=O)Nc1cc(-c2c(-c3ccc(N4CCN(C)CC4)cc3)[nH]c3ncc(C(=O)NCc4cccc(C(N)=O)c4)cc23)ccc1C [Example 133, 3-(3-acrylamido-4-methylphenyl)-N-(3-carbamoylbenzyl)-2-(4-(4-methylpiperazin-1-yl)phenyl)-1H-pyrrolo[2,3-b]pyridine-5-carboxamide] | < 5.00 | < 5.00 | > 10000 nM | 6.30 to 7.00 | ≥ 7.00 | 6.30 to 7.00 | > 10000 nM

The remaining lines, values ahead:

pIC50 (H1975) | pIC50 (A431) | GI50 [1] | pIC50 (HER2 INS YVMA) | pIC50 (EGFR wt) | pIC50 (EGFR T790ML858R) | GI50 [2] | SMILES
4.00 to 6.00 | 4.00 to 6.00 | 1000 to 10000 nM | ≥ 7.00 | ≥ 7.00 | ≥ 7.00 | 1000 to 10000 nM | C=CC(=O)Nc1cc(-c2c(-c3ccc(N4CCN(C)CC4)cc3)[nH]c3ncc(C(=O)NCc4ccc(CN5CCN(C)CC5)cc4)cc23)ccc1C [Example 122, 3-(3-acrylamido-4-methylphenyl)-N-(4-((4-methylpiperazin-1-yl)methyl)benzyl)-2-(4-(4-methylpiperazin-1-yl)phenyl)-1H-pyrrolo[2,3-b]pyridine-5-carboxamide]
6.00 to 6.30 | 6.00 to 6.30 | 100 to 500 nM | 6.30 to 7.00 | ≥ 7.00 | ≥ 7.00 | 500 to 1000 nM | C=CC(=O)Nc1cc(-c2c(-c3ccc(N4CCN(C)CC4)cc3)[nH]c3ncc(C(=O)NCCc4ccc(F)cc4)cc23)ccc1C [Example 124, 3-(3-acrylamido-4-methylphenyl)-N-(4-fluorophenethyl)-2-(4-(4-methylpiperazin-1-yl)phenyl)-1H-pyrrolo[2,3-b]pyridine-5-carboxamide]
6.30 to 7.00 | 4.00 to 6.00 | 1000 to 10000 nM | 5.00 to 6.00 | ≥ 7.00 | 6.30 to 7.00 | 1000 to 10000 nM | C=CC(=O)Nc1cc(-c2c(-c3ccc(N4CCN(C)CC4)cc3)[nH]c3ncc(C(=O)NCc4nc5ccccc5[nH]4)cc23)ccc1C [Example 125, N-((1H-benzo[d]imidazol-2-yl)methyl)-3-(3-acrylamido-4-methylphenyl)-2-(4-(4-methylpiperazin-1-yl)phenyl)-1H-pyrrolo[2,3-b]pyridine-5-carboxamide]
4.00 to 6.00 | 4.00 to 6.00 | 1000 to 10000 nM | ≥ 7.00 | ≥ 7.00 | ≥ 7.00 | 1000 to 10000 nM | C=CC(=O)Nc1cc(-c2c(-c3ccc(N4CCN(C)CC4)cc3)[nH]c3ncc(C(=O)NCc4ccncc4)cc23)ccc1C [Example 127, 3-(3-acrylamido-4-methylphenyl)-2-(4-(4-methylpiperazin-1-yl)phenyl)-N-(pyridin-4-ylmethyl)-1H-pyrrolo[2,3-b]pyridine-5-carboxamide]
4.00 to 6.00 | 4.00 to 6.00 | 1000 to 10000 nM | ≥ 7.00 | ≥ 7.00 | ≥ 7.00 | 1000 to 10000 nM | C=CC(=O)Nc1cc(-c2c(-c3ccc(N4CCN(C)CC4)cc3)[nH]c3ncc(C(=O)NCc4cccnc4)cc23)ccc1C [Example 128, 3-(3-acrylamido-4-methylphenyl)-2-(4-(4-methylpiperazin-1-yl)phenyl)-N-(pyridin-3-ylmethyl)-1H-pyrrolo[2,3-b]pyridine-5-carboxamide]
4.00 to 6.00 | 4.00 to 6.00 | 500 to 1000 nM | 6.30 to 7.00 | ≥ 7.00 | 6.00 to 6.30 | 1000 to 10000 nM | C=CC(=O)Nc1cc(-c2c(-c3ccc(N4CCN(C)CC4)cc3)[nH]c3ncc(C(=O)NCc4ccc(F)cc4F)cc23)ccc1C [Example 131, 3-(3-acrylamido-4-methylphenyl)-N-(2,4-difluorobenzyl)-2-(4-(4-methylpiperazin-1-yl)phenyl)-1H-pyrrolo[2,3-b]pyridine-5-carboxamide]

— patent publication US20220370440A1 (Lead Discovery Center GmbH, priority 2018, published 2022)
